pIC50: −log10 of the molar value.
molecular target: T1, human complement factor D (Homo sapiens, UniProt P00746); experiment: In vitro enzyme inhibition of human complement factor D (Z-Lys-SBzl/DTNB, A405); assay type: biochemical; conditions: biochemical assay, substrate Z-Lys-SBzl; read-out: CFD IC50
T1 construct: purchased R&D Systems 1824-SE
Method in brief: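 Buffer 50 mM Tris/HCl pH 7.5, 1 M NaCl, 0.5% final DMSO; compounds pre-incubated with enzyme 5 min at room temperature, then Z-Lys-SBzl with DTNB added (each diluted to 200 μM before addition).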

T1 sequence (P00746 26-253): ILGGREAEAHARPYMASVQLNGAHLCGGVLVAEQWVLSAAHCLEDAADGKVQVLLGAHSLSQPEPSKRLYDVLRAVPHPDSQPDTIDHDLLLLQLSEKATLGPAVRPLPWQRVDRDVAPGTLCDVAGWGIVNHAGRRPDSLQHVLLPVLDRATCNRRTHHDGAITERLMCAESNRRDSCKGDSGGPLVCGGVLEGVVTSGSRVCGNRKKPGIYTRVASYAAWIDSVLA

SMILES	pIC50
NC(=O)c1nn(CC(=O)N(CC(=O)NCc2ccc(F)c(Cl)c2)C2CC2)c2ccccc12 [Example 108, 1-(2-((2-((3-chloro-4-fluorobenzyl)amino)-2-oxoethyl)(cyclopropyl)amino)-2-oxoethyl)-1H-indazole-3-carboxamide]	5.00 to 6.00
NC(=O)c1nn(CC(=O)N(CC(=O)NCc2cc(Cl)cc3cn[nH]c23)C2CC2)c2ccccc12 [Example 109, 1-(2-((2-(((5-chloro-1H-indazol-7-yl)methyl)amino)-2-oxoethyl)(cyclopropyl)amino)-2-oxoethyl)-1H-indazole-3-carboxamide]	5.00 to 6.00
NC(=O)c1nn(CC(=O)N(CC(=O)NCc2cc(Cl)cc3ccoc23)C2CC2)c2ccccc12 [Example 110, 1-(2-((2-(((5-chlorobenzofuran-7-yl)methyl)amino)-2-oxoethyl)(cyclopropyl)amino)-2-oxoethyl)-1H-indazole-3-carboxamide]	6.00 to 7.00
NC(=O)c1nn(CC(=O)N(CC(=O)NCc2cccc(Cl)c2F)C2CC2)c2c(C(F)(F)F)cccc12 [Example 111, 1-(2-((2-((3-chloro-2-fluorobenzyl)amino)-2-oxoethyl)(cyclopropyl)amino)-2-oxoethyl)-7-(trifluoromethyl)-1H-indazole-3-carboxamide]	> 7.00
NC(=O)c1nn(CC(=O)N(CC(=O)NCc2cccc(Cl)c2)C2CC2)c2ccccc12 [Example 112, 1-(2-((2-((3-chlorobenzyl)amino)-2-oxoethyl)(cyclopropyl)amino)-2-oxoethyl)-1H-indazole-3-carboxamide]	6.00 to 7.00
Cc1ccc(CNC(=O)CN(C(=O)Cn2nc(C(N)=O)c3ccccc32)C2CC2)cc1Cl [Example 113, 1-(2-((2-((3-chloro-4-methylbenzyl)amino)-2-oxoethyl)(cyclopropyl)amino)-2-oxoethyl)-1H-indazole-3-carboxamide]	5.00 to 6.00
NC(=O)c1nn(CC(=O)N(CC(=O)NCc2cc(Cl)c3[nH]ncc3c2)C2CC2)c2ccccc12 [Example 114, 1-(2-((2-(((7-chloro-1H-indazol-5-yl)methyl)amino)-2-oxoethyl)(cyclopropyl)amino)-2-oxoethyl)-1H-indazole-3-carboxamide]	5.00 to 6.00
NC(=O)c1nn(CC(=O)N(CC(=O)NCc2ccccc2F)C2CC2)c2ccccc12 [Example 115, 1-(2-(cyclopropyl(2-((2-fluorobenzyl)amino)-2-oxoethyl)amino)-2-oxoethyl)-1H-indazole-3-carboxamide]	5.00 to 6.00
COc1c(Cl)cccc1CNC(=O)CN(C(=O)Cn1nc(C(N)=O)c2ccccc21)C1CC1 [Example 116, 1-(2-((2-((3-chloro-2-methoxybenzyl)amino)-2-oxoethyl)(cyclopropyl)amino)-2-oxoethyl)-1H-indazole-3-carboxamide]	5.00 to 6.00
NC(=O)c1ccc(CNC(=O)CN(C(=O)Cn2nc(C(N)=O)c3ccccc32)C2CC2)c(F)c1 [Example 117, 1-(2-((2-((4-carbamoyl-2-fluorobenzyl)amino)-2-oxoethyl)(cyclopropyl)amino)-2-oxoethyl)-1H-indazole-3-carboxamide]	5.00 to 6.00
NC(=O)c1nn(CC(=O)N(CC(=O)NCc2cccc(N)c2F)C2CC2)c2ccccc12 [Example 118, 1-(2-((2-((3-amino-2-fluorobenzyl)amino)-2-oxoethyl)(cyclopropyl)amino)-2-oxoethyl)-1H-indazole-3-carboxamide]	5.00 to 6.00
NC(=O)c1nn(CC(=O)N(CC(=O)NCc2cc(Cl)cc(Cl)c2)C2CC2)c2ccccc12 [Example 119, 1-(2-(cyclopropyl(2-((3,5-dichlorobenzyl)amino)-2-oxoethyl)amino)-2-oxoethyl)-1H-indazole-3-carboxamide]	6.00 to 7.00
NC(=O)c1nn(CC(=O)N(CC(=O)NCc2cccc(Br)c2F)C2CC2)c2ccccc12 [Example 120, 1-(2-((2-((3-bromo-2-fluorobenzyl)amino)-2-oxoethyl)(cyclopropyl)amino)-2-oxoethyl)-1H-indazole-3-carboxamide]	> 7.00
NC(=O)c1nn(CC(=O)N(CC(=O)NCc2ccc(N)cc2F)C2CC2)c2ccccc12 [Example 121, 1-(2-((2-((4-amino-2-fluorobenzyl)amino)-2-oxoethyl)(cyclopropyl)amino)-2-oxoethyl)-1H-indazole-3-carboxamide]	5.00 to 6.00
COc1cccc(CNC(=O)CN(C(=O)Cn2nc(C(N)=O)c3ccccc32)C2CC2)c1F [Example 122, 1-(2-(cyclopropyl(2-((2-fluoro-3-methoxybenzyl)amino)-2-oxoethyl)amino)-2-oxoethyl)-1H-indazole-3-carboxamide]	5.00 to 6.00
N#Cc1cccc(CNC(=O)CN(C(=O)Cn2nc(C(N)=O)c3ccccc32)C2CC2)c1F [Example 123, 1-(2-((2-((3-cyano-2-fluorobenzyl)amino)-2-oxoethyl)(cyclopropyl)amino)-2-oxoethyl)-1H-indazole-3-carboxamide]	5.00 to 6.00
NC(=O)c1nn(CC(=O)N(CC(=O)NCc2cc(Cl)cc(C(F)(F)F)c2)C2CC2)c2ccccc12 [Example 124, 1-(2-((2-((3-chloro-5-(trifluoromethyl)benzyl)amino)-2-oxoethyl)(cyclopropyl)amino)-2-oxoethyl)-1H-indazole-3-carboxamide]	5.00 to 6.00

SMILES	pIC50
COc1ccc(CNC(=O)CN(C(=O)Cn2nc(C(N)=O)c3ccccc32)C2CC2)cc1Cl [Example 125, 1-(2-((2-((3-chloro-4-methoxybenzyl)amino)-2-oxoethyl)(cyclopropyl)amino)-2-oxoethyl)-1H-indazole-3-carboxamide]	5.00 to 6.00
NC(=O)c1nn(CC(=O)N(CC(=O)NCc2cccc(CO)c2F)C2CC2)c2ccccc12 [Example 126, 1-(2-(cyclopropyl(2-((2-fluoro-3-(hydroxymethyl)benzyl)amino)-2-oxoethyl)amino)-2-oxoethyl)-1H-indazole-3-carboxamide]	< 5.00
NC(=O)c1nn(CC(=O)N(CC(=O)NCc2cccc(C3CC3)c2F)C2CC2)c2ccccc12 [Example 127, 1-(2-(cyclopropyl(2-((3-cyclopropyl-2-fluorobenzyl)amino)-2-oxoethyl)amino)-2-oxoethyl)-1H-indazole-3-carboxamide]	5.00 to 6.00
Cc1cccc(CNC(=O)CN(C(=O)Cn2nc(C(N)=O)c3ccccc32)C2CC2)c1F [Example 128, 1-(2-(cyclopropyl(2-((2-fluoro-3-methylbenzyl)amino)-2-oxoethyl)amino)-2-oxoethyl)-1H-indazole-3-carboxamide]	6.00 to 7.00
Cc1cc(Cl)cc(CNC(=O)CN(C(=O)Cn2nc(C(N)=O)c3ccccc32)C2CC2)c1 [Example 129, 1-(2-((2-((3-chloro-5-methylbenzyl)amino)-2-oxoethyl)(cyclopropyl)amino)-2-oxoethyl)-1H-indazole-3-carboxamide]	5.00 to 6.00
NC(=O)c1nn(CC(=O)N(CC(=O)NCc2cncc(Cl)c2)C2CC2)c2ccccc12 [Example 130, 1-(2-((2-(((5-chloropyridin-3-yl)methyl)amino)-2-oxoethyl)(cyclopropyl)amino)-2-oxoethyl)-1H-indazole-3-carboxamide]	5.00 to 6.00
NC(=O)c1nn(CC(=O)N(CC(=O)NCc2cccc(Cl)c2C2CC2)C2CC2)c2ccccc12 [Example 131, 1-(2-((2-((3-chloro-2-cyclopropylbenzyl)amino)-2-oxoethyl)(cyclopropyl)amino)-2-oxoethyl)-1H-indazole-3-carboxamide]	< 5.00
NC(=O)c1nn(CC(=O)N(CC(=O)NCc2cccc(F)c2F)C2CC2)c2ccccc12 [Example 132, 1-(2-(cyclopropyl(2-((2,3-difluorobenzyl)amino)-2-oxoethyl)amino)-2-oxoethyl)-1H-indazole-3-carboxamide]	6.00 to 7.00
N#Cc1cc(Cl)cc(CNC(=O)CN(C(=O)Cn2nc(C(N)=O)c3ccccc32)C2CC2)c1 [Example 133, 1-(2-((2-((3-chloro-5-cyanobenzyl)amino)-2-oxoethyl)(cyclopropyl)amino)-2-oxoethyl)-1H-indazole-3-carboxamide]	5.00 to 6.00
Cc1c(Cl)cccc1CNC(=O)CN(C(=O)Cn1nc(C(N)=O)c2ccccc21)C1CC1 [Example 134, 1-(2-((2-((3-chloro-2-methylbenzyl)amino)-2-oxoethyl)(cyclopropyl)amino)-2-oxoethyl)-1H-indazole-3-carboxamide]	5.00 to 6.00
NC(=O)c1nn(CC(=O)N(CC(=O)NCc2cccc(Cl)c2C(F)(F)F)C2CC2)c2ccccc12 [Example 135, 1-(2-((2-((3-chloro-2-(trifluoromethyl)benzyl)amino)-2-oxoethyl)(cyclopropyl)amino)-2-oxoethyl)-1H-indazole-3-carboxamide]	5.00 to 6.00
NC(=O)c1nn(CC(=O)N(CC(=O)NCc2cccc(C(F)(F)F)c2F)C2CC2)c2ccccc12 [Example 136, 1-(2-(cyclopropyl(2-((2-fluoro-3-(trifluoromethyl)benzyl)amino)-2-oxoethyl)amino)-2-oxoethyl)-1H-indazole-3-carboxamide]	5.00 to 6.00
CC(=O)c1nc(CC(=O)N(CC(=O)NCc2cccc(Cl)c2F)C2CC2)c2ccccn12 [Example 137, 2-(3-acetylimidazo[1,5-a]pyridin-1-yl)-N-(2-((3-chloro-2-fluorobenzyl)amino)-2-oxoethyl)-N-cyclopropylacetamide]	5.00 to 6.00
NC(=O)c1nc(CC(=O)N(CC(=O)NCc2cccc(Cl)c2F)C2CC2)c2ccccn12 [Example 138, 1-(2-((2-((3-chloro-2-fluorobenzyl)amino)-2-oxoethyl)(cyclopropyl)amino)-2-oxoethyl)imidazo[1,5-a]pyridine-3-carboxamide]	6.00 to 7.00
NC(=O)c1nc(NC(=O)N(CC(=O)NCc2cccc(Cl)c2F)C2CC2)n2ccccc12 [Example 140, 3-(3-(2-((3-chloro-2-fluorobenzyl)amino)-2-oxoethyl)-3-cyclopropylureido)imidazo[1,5-a]pyridine-1-carboxamide]	6.00 to 7.00
CC(=O)c1nc(NC(=O)N(CC(=O)NCc2cccc(Cl)c2F)C2CC2)c2ccccn12 [Example 141, 2-(3-(3-acetylimidazo[1,5-a]pyridin-1-yl)-1-cyclopropylureido)-N-(3-chloro-2-fluorobenzyl)acetamide]	6.00 to 7.00
